This is an account of results in patent US20050084509A1, “Use of citric acid and low concentrations of alpha-hydroxy acids for superficial skin treatment” (priority 2003, published 2005).

For one series, the system named is photodamaged skin. The series can be described thus: citric acid peels on photodamaged skin (office peel study). As to conditions: 50 percent citric acid solution.
Another series relates to signs of photoaging. The series can be described thus: citric acid versus glycolic acid at equal concentration and same pH. The series is classed as in vivo, human.
The test system of another series is ichthyosis. To be noted: in vivo; cited from earlier work.
For the next series, the system named is skin. Briefly: low concentration citric acid peel self-administered in the home. The series is classed as in vivo, human.
The mark [1] stands for this setting: two months after last treatment.

`O=C(O)CC(O)(CC(=O)O)C(=O)O` [citric acid]: the “fine lines and wrinkles, photographs evaluated by blinded observers” value with photodamaged skin (2-5 min, neutralized, peels at one month intervals, evaluated two months after last treatment) is “statistically significant improvement”. Besides, in the series with photodamaged skin (immediately after peel), the “redness immediately following a peel” value was “increase in redness”. Moreover, in the series with photodamaged skin (setting [1]), the “fine lines, wrinkles by Primos topographic image analysis” value is recorded as “improvement in fine lines, wrinkles”; the “pore size by Primos topographic image analysis” value is “reduction in pore size”; the “redness by cross-polarized photography” value is “no dramatic change in redness”. Besides, the “reducing the signs of photoaging versus glycolic acid” value in the series with signs of photoaging (equal concentration of glycolic acid at the same pH) is on record as “more effective”. Further, the “side effects versus glycolic acid” value with signs of photoaging (glycolic acid of the same concentration) was “side effects are less”. The “efficacy in treating ichthyosis” value in the series with ichthyosis is listed as “highly effective”. The “subjective assessment of fine lines, wrinkles, enlarged pores, and brown spots” value with skin (10 percent citric acid solution, three treatments at two-week intervals, two months after third treatment) is reported as “statistically significant improvement”. In addition, the “skin tolerance without neutralization” value with skin (ten percent citric acid) is listed as “may be left on most people's skin without neutralization”.
